Laboratory results as given in the supplement of paper PMC10307832.

Experiments:
Assay in all cases: relative viability (nuclei count vs DMSO), 5 days (fraction); higher = more cells survive
[1] = compound: CC1=NN=C(O1)C2=NN=C(C=C2)N3CCC(CC3)OC4=C(C=CC(=C4)F)Cl + C[C@]1(O)C[C@@H](c2nc(-c3ccc4ccc(-c5ccccc5)nc4c3)c3c(N)nccn32)C1 [Linsitinib] (partner 1 µM)
Method in brief: (§1)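 Lung cancer cell lines in 1536-well plates were dosed by pin tool the day after seeding, either with one drug alone or with a fixed anchor-drug dose plus five library-drug doses (not always all listed) in √10 steps. After 5 days, cells were fixed and their nuclei stained in one step (final 0.05% Triton X-100, 1% formaldehyde, 1 ug/ml Hoechst), then counted on 4× images. Relative viability is the nuclei count in treated wells divided by that in vehicle wells. Values are medians of duplicate plates.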

Tosedostat + Navitoclax = compound: CC(C)C[C@@H](C(=O)N[C@H](C(=O)OC1CCCC1)c1ccccc1)[C@H](O)C(=O)NO [Tosedostat] + CC1(C)CCC(c2ccc(Cl)cc2)=C(CN2CCN(c3ccc(C(=O)NS(=O)(=O)c4ccc(N[C@H](CCN5CCOCC5)CSc5ccccc5)c(S(=O)(=O)C(F)(F)F)c4)cc3)CC2)C1 [Navitoclax] (partner 0.5 µM)
Method in brief: as §1

Tosedostat + Palbociclib = compound: CC(C)C[C@@H](C(=O)N[C@H](C(=O)OC1CCCC1)c1ccccc1)[C@H](O)C(=O)NO [Tosedostat] + CC(=O)c1c(C)c2cnc(Nc3ccc(N4CCNCC4)cn3)nc2n(C2CCCC2)c1=O [Palbociclib] (partner 0.5 µM)
Method in brief: as §1

[2] = compound: CC1=NN=C(O1)C2=NN=C(C=C2)N3CCC(CC3)OC4=C(C=CC(=C4)F)Cl + C[C@@H](Oc1cc(-c2cnn(C3CCNCC3)c2)cnc1N)c1c(Cl)ccc(F)c1Cl [Crizotinib] (partner 1 µM)
Method in brief: as §1

Cell Line	relative viability ([1]; first compound 0.253 µM)	relative viability ([1]; first compound 0.8 µM)	relative viability ([1]; first compound 2.53 µM)	relative viability ([1]; first compound 8 µM)	relative viability (Tosedostat + Navitoclax; first compound 0.02 µM)	relative viability (Tosedostat + Navitoclax; first compound 0.06325 µM)	relative viability (Tosedostat + Navitoclax; first compound 0.2 µM)	relative viability (Tosedostat + Navitoclax; first compound 0.6325 µM)	relative viability (Tosedostat + Navitoclax; first compound 2 µM)	relative viability (Tosedostat + Palbociclib; first compound 0.02 µM)	relative viability (Tosedostat + Palbociclib; first compound 0.06325 µM)	relative viability (Tosedostat + Palbociclib; first compound 0.2 µM)	relative viability (Tosedostat + Palbociclib; first compound 0.6325 µM)	relative viability (Tosedostat + Palbociclib; first compound 2 µM)	relative viability ([2]; first compound 0.253 µM)	relative viability ([2]; first compound 0.8 µM)	relative viability ([2]; first compound 2.53 µM)	relative viability ([2]; first compound 8 µM)
HCC-366	0.225	0.291	0.386	0.247	1.15	1.01	1.02	1.01	1.11	0.389	0.43	0.372	0.391	0.369	0.289	0.284	0.256	0.272
HCC-827	0.395	0.281	0.366	0.355	1.01	1.03	1.06	1.03	0.86	0.421	0.536	0.505	0.466	0.502	0.331	0.224	0.326	0.308
HOP-62	0.677		0.771	0.443	1.19	1	1.01	1.02	0.914	0.478	0.467	0.463	0.462	0.439	0.71		0.784	0.575
IA-LM	0.0892	0.0763	0.1	0.0794	0.731	0.655	0.875	0.585	0.603						0.415	0.266	0.288	0.34
LC-2-ad	0.427	0.376	0.381	0.328	0.614	0.419	0.473	0.386	0.264	0.49	0.496	0.525	0.446	0.529	0.334	0.314	0.336	0.326
LCLC-97TM1	0.159		0.174	0.191	0.559			0.633	0.293	0.227	0.184	0.185	0.221	0.194	0.262		0.442	0.327
LCLC-103H	0.807	0.867	0.761	0.711						0.447	0.483	0.456	0.504	0.486	0.819	0.746	0.723	0.746
LK-2	0.603	0.592	0.627	0.49	0.905	0.855	0.788	0.909	0.976	0.768	0.702	0.721	0.739	0.909	0.216	0.246	0.24	0.259
LOU-NH91		0.86	0.862	0.997	0.753	0.657	0.615	0.543	0.483	0.549	0.458	0.545	0.559	0.528		0.654	0.703	0.749
NCI-H358	0.714	0.751	0.758	0.795						0.141	0.134	0.131	0.137	0.136	0.522	0.403	0.509	0.466
NCI-H522										0.964	0.845	1.02	1.17	0.945				
NCI-H596		0.953	1.01	0.933	1.01	1.06	1.01	0.996	0.805							0.95	0.963	0.795
NCI-H650	0.981	0.766	0.773	0.786						0.31	0.342	0.291	0.35	0.295	0.691	0.692	0.64	0.818
NCI-H661	0.566	0.531	0.62	0.469						0.428	0.432	0.491	0.507	0.493	0.609	0.661	0.711	0.747
NCI-H1299	0.896	0.802	0.807	0.856	1.09	1.03	1.04	1.02	0.948						0.785	0.711	0.756	0.689
NCI-H1395	0.931	0.943	1.09	1.06	1.06	1.19	0.905	0.917	0.886	0.63	0.661	0.596	0.709	0.596				
NCI-H1563	1.18	1.1	1.35	1.21											0.861	0.858	0.837	0.868
NCI-H1648										0.251	0.264	0.263	0.313	0.248				
NCI-H1650					1.25	1.05	1.27	1.01	0.825	0.352	0.39	0.376	0.417	0.504		0.748	0.806	0.803
NCI-H1703	0.714	0.686	0.803	0.737	0.89	0.945	0.898	0.635	0.691						0.728	0.661	0.764	0.611
NCI-H1793	0.725	0.735	0.952	0.822	0.402	0.463	0.402	0.449	0.4	0.302	0.325	0.339	0.293	0.375				
NCI-H2170					0.654	0.586	0.572	0.533	0.63	0.399	0.394	0.393	0.406	0.393	0.553	0.573	0.638	0.449
NCI-H2342										0.536	0.507	0.578	0.524	0.61				
SW 900										0.446	0.462	0.479	0.479	0.466				
